Converted amounts (≈) assume the structure as drawn. “Also recorded” adds a separate entry of the source. Where two headings read alike, the source gives them in different places.
How the values were obtained:
S. epidermidis biofilm [1] = experiment: HTS live biofilm assay (resazurin metabolic activity); assay type: cell-based; settings: Staphylococcus epidermidis, dose-response
S. epidermidis biofilm [2] = experiment: CLSM, co-culture of bacteria with compound (inhibition of biofilm formation); assay type: cell-based, Staphylococcus epidermidis; settings: for killing of residential bacteria, co-culture (CLSM, in words): 10 μM; for Co-culture of bacteria with compound: Killing: CLSM, 10 μM compound, 18 hrs, Y / —
Experimental: (§1) Broad spectrum agents (effective against all three bacterial species) and single agent compounds identified as HTS hits were investigated with CLSM confirmation of inhibition of biofilm formation (culture of bacteria with compounds) or killing of bacteria residing within an established biofilm (compound addition after culturing biofilm). To evaluate inhibition of P. aeruginosa biofilms, bacteria were sub-cultured into 10% L-broth and grown at 37° C. until the OD600 reached 0.25. The bacteria were further diluted 1:100 into a modified 0.5×M63 minimum media (50 mM KH2PO4, 7.5 mM (NH4)2SO4, 9 μM FeSO4, 0.5% casamino acids, 0.2% glucose, and 1 mM MgSO4). A. baumannii biofilms were also grown in 10% L-broth until the OD600 reached 0.05 but diluted 1:10 into 5% L-broth media. S. epidermidis biofilm cultures were grown. Briefly, the bacteria were grown in TSB until the OD600 reached 0.75, and a 1:100 dilution of the bacteria was sub-cultured into phosphate buffered saline (PBS). All of the biofilm bacterial cultures were grown in 96-well plate chambers (MatTek Corp., Ashland, Mass.) in the presence of 10 μM of each compound or DMSO as a control and incubated for 18 hrs at 37° C. To investigate the ability of compounds to kill bacteria within pre-existing biofilms, biofilms were grown under the same conditions, but without test compound. These biofilms were washed once with PBS and incubated an additional 24 hr at 37° C. in PBS containing 300 μM of each compound. All biofilm cultures were then washed twice with 100 μL of PBS and stained using the LIVE/DEAD® BacLight™ Bacterial Viability Kit (Invitrogen). Finally, biofilm images were obtained using a Zeiss LSM510 META Confocal Microscope (Carl Zeiss, Inc., Germany). A 488 nm laser was used in conjunction with a Plan-Apochromat 100×/1.4 Oil DIC objective. Z-stacks were 8 bit and measured 127.3 μm×127.3 μm×16.0 μm in size. The filters used were 505-530 and 620-680 IR, as the excitation and emission wavelengths for red fluorescence are 490 nm and 635 nm, respectively, and 480 nm and 500 nm for green fluorescence. Three dimensional images were generated using the “Projection” ability on LSM Image Browser software (v.1.4.0.121) or Zeiss LSM image browser software version 3.5 (Carl Zeiss, Inc., Germany), and Live/Dead calculations were conducted based upon these images using MacBiophotonics ImageJ following the guidelines in the cell counting guide by C. Labno {Rasband, 1997-2011 #25; Labno, #2} at the University of Chicago Integrated Light Microscopy Core. The thickness of the biofilm was calculated using Comstat software. A hit was defined as a >50% dead to live ratio.
(§2) The CLSM experiment was performed in one or two or all bacteria used in this study depending on its activity. For the validation of HTS hits, 10 μM of compound was added to each bacterial suspension and the resulting biofilm stained with LIVE/DEAD® BacLight™ Bacterial Viability Kit. The images were analyzed to determine the live and dead ratios of biofilm bacteria, the thickness of biofilms, and structural attributes of biofilms.

[3] = tested on: P. aeruginosa established biofilm; experiment: CLSM, effect of compound on the pre-existing biofilm; assay type: cell-based, Pseudomonas aeruginosa; settings: for Effect of compound on the pre-existing biofilm: Dispersion: ** = Bacterial morphology changed
Experimental: as §1, §2

P. aeruginosa = experiment: MIC determination (CLSI, Mueller Hinton broth), planktonic cultures; assay type: cell-based, Pseudomonas aeruginosa; settings: for MIC: Pseudomonas aeruginosa
Experimental: (§3) A standard protocol for determining the MIC of a specific compound as outlined by the Clinical and Laboratory Standards Institute (CLSI) was used, based on growth of the selected bacteria in Mueller Hinton (MH) broth with subsequent 2-fold dilutions of compounds of interest. Following the CLSI protocols, the MIC of each broad spectrum “hit” compound was performed in all 3 bacterial species in both aerobic and anaerobic conditions. All bacteria were grown in MH broth for 18 hrs at 37° C. The cells were then diluted 100-fold into MH broth containing compounds at concentrations ranging from 0.40-50 μM in the presence of either KNO3 or glucose to allow bacterial growth under anaerobic condition. After 24 hrs of incubation, cell growth was measured at OD600 using a SpectraMax 190 Absorbance Microplate Reader.
(§4) The HTS and CLSM assays identified and confirmed compounds that can inhibit biofilms formation in aerobic growth conditions. However, P. aeruginosa and S. epidermidis are capable of growth under anaerobic as well as aerobic conditions. […] The Minimal Inhibitory Concentrations (MIC) of the four broad agent hit compounds under both aerobic and anaerobic conditions of planktonic P. aeruginosa and S. epidermidis cultures were determined to evaluate compound efficacy in different growth conditions. The MICs for A. baumannii were determined only in aerobic conditions. To examine growth in aerobic conditions, bacteria were grown in either Mueller Hinton (MH) media only, MH media in the presence of 1% KNO3, or MH in the presence of 1% glucose. For MIC determinations under anaerobic conditions, growth was examined in MH media with 1% KNO3 or with 1% glucose.

S. epidermidis = experiment: as above; assay type: cell-based; settings: Staphylococcus epidermidis
Experimental: as §3, §4

[4] = tested on: P. aeruginosa established biofilm; experiment: CLSM, effect of compound on the pre-existing biofilm; assay type: cell-based, Pseudomonas aeruginosa
[5] = MH with 1% KNO3, Aerobic, read-out: Minimum Inhibition Concentration
[6] = MH with 1% KNO3, Anaerobic, read-out: Minimum Inhibition Concentration
[7] = MH, Aerobic, read-out: Minimum Inhibition Concentration
[8] = across all growth conditions (aerobic and anaerobic), read-out: concentration required to inhibit planktonic P. aeruginosa growth (MIC)
[9] = MH with 1% Glucose, Aerobic, read-out: Minimum Inhibition Concentration
[10] = MH with 1% Glucose, Anaerobic, read-out: Minimum Inhibition Concentration
[11] = across all media and conditions (aerobic and anaerobic), read-out: concentration required to inhibit planktonic S. epidermidis growth (MIC)

Row | SMILES | AC50 (S. epidermidis biofilm [1]) [nM] | killing of residential bacteria, co-culture (CLSM, in words) (S. epidermidis biofilm [2]) | Co-culture of bacteria with compound: Killing (S. epidermidis biofilm [2]) | Effect of compound on the pre-existing biofilm: Dispersion ([3]; CLSM, 300 μM compound, 24 hr) | bacterial morphology in established P. aeruginosa biofilm (CLSM) [3] | MIC (P. aeruginosa; [5]) [µM] | MIC (P. aeruginosa; [6]) [µM] | MIC (P. aeruginosa; [7]) [µM] | MIC (P. aeruginosa; [8]) [µM] | MIC (S. epidermidis; [9]) [µM] | MIC (S. epidermidis; [10]) [µM] | MIC (S. epidermidis; [5]) [µM] | MIC (S. epidermidis; [6]) [µM] | MIC (S. epidermidis; [7]) [µM] | MIC (S. epidermidis; [11]) [µM] | effective on established P. aeruginosa biofilm at 100 μM (CLSM, in words) [4] | killing of established P. aeruginosa biofilm (CLSM, in words) ([3]; 300 μM, 24 hr) | Effect of compound on the pre-existing biofilm: Killing ([3]; CLSM, 300 μM compound, 24 hr, Y / —) | biofilm architecture / thickness of established P. aeruginosa biofilm (CLSM) ([3]; 300 μM) | Minimum Inhibition Concentration (P. aeruginosa; MH with 1% KNO3, Anaerobic) [µM]
1 | NC(=S)N1CCN(c2cc3c(cc2F)c(=O)c(C(=O)O)cn3C2CC2)CC1 [Compound 7, 7-(4-carbamothioylpiperazin-1-yl)-1-cyclopropyl-6-fluoro-4-oxoquinoline-3-carboxylic acid] | 850 | killed residential bacteria | Y (A hit was defined as a >50% dead to live ratio) | caused dispersion and Y** | altered the morphology | 5.21 ± 1.04 (≈ 2.03 µg/mL) | 4.17 ± 1.04 (≈ 1.63 µg/mL) | 4.7 ± 1.04 (≈ 1.84 µg/mL) | 4 to 5 (≈ 1.56 to 1.95 µg/mL) | 5.86 ± 2.42 (≈ 2.29 µg/mL) | 5.21 ± 1.04 (≈ 2.03 µg/mL) | 10.4 ± 2.08 (≈ 4.07 µg/mL) | 5.21 ± 1.04 (≈ 2.03 µg/mL) | 8.33 ± 2.08 (≈ 3.25 µg/mL) | 4 to 10 (≈ 1.56 to 3.9 µg/mL) | effective | – | – | – | –
2 | Cn1sc(Cl)c(C#N)c1=O [Compound 3, 5-chloro-2-methyl-3-oxo-1,2-thiazole-4-carbonitrile] | 8610 | killed residential bacteria | Y (A hit was defined as a >50% dead to live ratio) | – | – | 33.3 ± 8.33 (≈ 5.82 µg/mL) | 25 (≈ 4.37 µg/mL) | > 50 | ≥ 25 | 10.4 ± 2.08 (≈ 1.82 µg/mL) | 16.7 ± 4.17 (≈ 2.91 µg/mL) | 25 (≈ 4.37 µg/mL) | 16.7 ± 4.17 (≈ 2.91 µg/mL) | 20.8 ± 4.17 (≈ 3.64 µg/mL) | 10 to 25 (≈ 1.75 to 4.37 µg/mL) | effective at killing | demonstrated killing; also recorded: effective at killing | Y (A hit was defined as a >50% dead to live ratio) | – | –
3 | O=C(O)c1cn(C2CC2)c2c(F)c(N3CC(O)C3)c(F)cc2c1=O [Compound 8, 1-cyclopropyl-6,8-difluoro-7-(3-hydroxyazetidin-1-yl)-4-oxoquinoline-3-carboxylic acid] | < 100 | killed residential bacteria | Y (A hit was defined as a >50% dead to live ratio) | caused dispersion and Y** | altered the morphology | ≤ 20 | 7 (≈ 2.35 µg/mL) | 10.4 ± 2.08 (≈ 3.5 µg/mL) | – | 0.65 ± 0.13 (≈ 0.219 µg/mL) | 0.78 ± 0.39 (≈ 0.262 µg/mL) | 0.78 ± 0.39 (≈ 0.262 µg/mL) | 0.39 (≈ 0.131 µg/mL) | 0.65 ± 10.1 (≈ 0.219 µg/mL) | < 1 | – | – | – | thinner biofilm architecture | 7.81 ± 2.71
4 | O=C(O)c1cn(C2CC2)c2c(F)c(-c3ccncc3)c(F)cc2c1=O [Compound 11, 7-(4-pyridyl)-1-cyclopropyl-6,8-difluoro-4-oxoquinoline-3-carboxylic acid] | < 100 | killed | Y (A hit was defined as a >50% dead to live ratio) | caused dispersion and Y** | altered the morphology | > 50 | 25 ± 12.5 (≈ 8.56 µg/mL) | > 50 | ≥ 25 | 7.81 ± 2.71 (≈ 2.67 µg/mL) | 7.29 ± 2.76 (≈ 2.5 µg/mL) | 7.81 ± 2.71 (≈ 2.67 µg/mL) | 4.17 ± 1.04 (≈ 1.43 µg/mL) | 5.73 ± 3.42 (≈ 1.96 µg/mL) | 4 to 10 (≈ 1.37 to 3.42 µg/mL) | – | – | – | thinner biofilm architecture | –

Source: US10704076B2, “Multi-tiered high through-put screen for compounds effective against bacterial biofilm and compounds effective for inhibiting and eradicating bacterial biofilm” (University of Cincinnati, priority 2013, dated 2020)
